Results taken from PMC7129073 (Clinical Microbiology and Infection, 2015).
Values after ≈ are worked out from the molar mass of the structure shown. Marks after values point to notes of the source that are not given here.

Columns and labels:
S. progenies = assay: MIC, NCCLS methods; assay type: cell-based; conditions: Streptococcus pyogenes
M. catarrhalis = assay: MIC, NCCLS methods; assay type: cell-based; conditions: Moraxella catarrhalis
E. faecium [1] = assay: MIC, NCCLS methods; assay type: cell-based; conditions: Enterococcus faecium
[2] = system: methicillin resistant Staphylococcus aureus; assay: NCCLS agar dilution MIC; assay type: cell-based; conditions: Staphylococcus aureus
H. parainfluenzae = assay: MIC, NCCLS methods; assay type: cell-based; conditions: Haemophilus parainfluenzae
[3] = system: methicillin susceptible Staphylococcus aureus; assay: NCCLS agar dilution MIC; assay type: cell-based; conditions: Staphylococcus aureus
E. faecalis [4] = assay: MIC, NCCLS methods; assay type: cell-based; conditions: Enterococcus faecalis
S. pneumoniae [5] = assay: MIC, NCCLS methods; assay type: cell-based; conditions: Streptococcus pneumoniae
S. aureus (MR) = assay: MIC, NCCLS methods; assay type: cell-based; conditions: Staphylococcus aureus
Streptococcus spp = assay: MIC, NCCLS methods; assay type: cell-based
B. pertussis = assay: MIC, NCCLS methods; assay type: cell-based; conditions: N=10
N meningitidis = assay: MIC, NCCLS methods; assay type: cell-based
S. aureus (MS) = assay: MIC, NCCLS methods; assay type: cell-based; conditions: Staphylococcus aureus
H. influenzae [6] = assay: MIC, NCCLS methods; assay type: cell-based; conditions: Haemophilus influenzae
A. haemolyticum = assay: MIC, NCCLS methods; assay type: cell-based; conditions: N=9
S. pyogenes = assay: Sensitivity of CAP pathogens with/without antibiotic pretreatment; assay type: cell-based, Streptococcus pyogenes; conditions: Abs. 4
P. jirovecii = P. jirovecii colonisation; assay type: in vivo, human; conditions: none developed PcP in one year
[7] = system: Streptococcus pyogenes (SPY); assay: MIC; assay type: cell-based; conditions: 2522 isolates
N.gonorrhoeae = assay: microbe, parasite or virus in culture; assay type: cell-based; conditions: Neisseria gonorrhoeae
PRSP = assay: Broth microdilution; assay type: cell-based, Streptococcus pneumoniae
S. pneumoniae [8] = assay: E-test MIC, children with URTI, Brazil; assay type: cell-based, Streptococcus pneumoniae
[9] = system: Moraxella catarrhalis (MC); assay: MIC; assay type: cell-based; conditions: 2497 isolates
[10] = system: Other non-fermenting bacteria; assay: Sensitivity of CAP pathogens with/without antibiotic pretreatment; assay type: cell-based
Staph. coaq (−) = assay: as above; assay type: cell-based, coagulase-negative Staphylococcus
S. -pneumoniae = assay: as above; assay type: cell-based, Streptococcus pneumoniae
S. aureus [11] = assay: as above; assay type: cell-based, Staphylococcus aureus; conditions: after pretreatment, Abs. 4
[12] = system: pathogens in community acquired pneumonia of different severity; assay: Sensitivity of CAP pathogens by Fine severity group; assay type: cell-based
Enterococcus sp = assay: Sensitivity of CAP pathogens with/without antibiotic pretreatment; assay type: cell-based
Kl. pneumoniae = assay: as above; assay type: cell-based, Klebsiella pneumoniae
H. influenzae [13] = assay: as above; assay type: cell-based, Haemophilus influenzae
P. aeruginosa = assay: as above; assay type: cell-based, Pseudomonas aeruginosa; conditions: Abs. 3
ERSP = assay: Broth microdilution; assay type: cell-based, Streptococcus pneumoniae
Other Enterobacteriacae = assay: Sensitivity of CAP pathogens with/without antibiotic pretreatment; assay type: cell-based, Enterobacteriaceae
E. coli = assay: as above; assay type: cell-based, Escherichia coli
S. pneumoniae [14] = assay: Broth microdilution; assay type: cell-based, Streptococcus pneumoniae
Other Haemophilus sp. = assay: Sensitivity of CAP pathogens with/without antibiotic pretreatment; assay type: cell-based; conditions: after pretreatment, Abs. 11
[15] = system: Total pathogens in community acquired pneumonia; assay: as above; assay type: cell-based; conditions: after pretreatment, Abs. 48
H.influenzae = assay: Broth microdilution; assay type: cell-based, Haemophilus influenzae
CA-MRSA = assay: MIC, MBC; assay type: cell-based, Staphylococcus aureus
MRSA = assay: Disk diffusion; assay type: cell-based, Staphylococcus aureus; conditions: 200 isolates
Enterococcus spp. = assay: NCCLS broth microdilution MIC, 50 mg/L calcium; assay type: cell-based
S. aureus [16] = assay: NCCLS broth microdilution MIC, 50 mg/L calcium; assay type: cell-based
[17] = system: viridans group Streptococcus spp.; assay: NCCLS broth microdilution MIC, 50 mg/L calcium; assay type: cell-based
[18] = system: viridans group streptococci (VgS) and Streptococcus bovis; assay: Broth microdilution and disk diffusion; assay type: cell-based
[19] = system: coagulase-negative Staphylococci; assay: NCCLS broth microdilution MIC, 50 mg/L calcium; assay type: cell-based
E. faecium [20] = assay: NCCLS broth microdilution MIC, 50 mg/L calcium; assay type: cell-based
[21] = system: beta-haemolytic Streptococcus spp.; assay: NCCLS broth microdilution MIC, 50 mg/L calcium; assay type: cell-based
MDR-MRSA = assay: MIC, MBC; assay type: cell-based, Staphylococcus aureus; conditions: time kill, two strains
E. faecalis [22] = assay: NCCLS broth microdilution MIC, 50 mg/L calcium; assay type: cell-based
[23] = NCCLS breakpoints (Amox/Clav 2/1 mcg/mL)

CC[C@H]1OC(=O)[C@H](C)[C@@H](O[C@H]2C[C@@](C)(OC)[C@@H](O)[C@H](C)O2)[C@H](C)[C@@H](O[C@@H]2O[C@H](C)C[C@H](N(C)C)[C@H]2O)[C@](C)(O)C[C@@H](C)C(=O)[C@H](C)[C@@H](O)[C@]1(C)O [Erythromycin A, erythromycin A]
MIC50 (S. progenies): > 64 µg/mL
MIC90 (S. progenies): > 64 µg/mL
MIC50 (M. catarrhalis): 0.12 µg/mL (≈ 0.164 µM)
MIC90 (M. catarrhalis): 0.12 µg/mL (≈ 0.164 µM)
MIC50 (E. faecium [1]): > 64 µg/mL
MIC90 (E. faecium [1]): > 64 µg/mL
MIC50 [2]: > 64 µg/mL
MIC90 [2]: > 64 µg/mL
MIC50 (H. parainfluenzae): 2 µg/mL (≈ 2.73 µM)
MIC90 (H. parainfluenzae): 8 µg/mL (≈ 10.9 µM)
MIC50 [3]: 0.25 µg/mL (≈ 0.341 µM)
MIC90 [3]: > 64 µg/mL
MIC50 (E. faecalis [4]): > 64 µg/mL
MIC90 (E. faecalis [4]): > 64 µg/mL
MIC50 (S. pneumoniae [5]): > 32 µg/mL
MIC90 (S. pneumoniae [5]): > 32 µg/mL
MIC50 (S. aureus (MR)): > 64 µg/mL
MIC90 (S. aureus (MR)): > 64 µg/mL
MIC50 (Streptococcus spp): 0.06 µg/mL (≈ 0.0818 µM)
MIC90 (Streptococcus spp): 0.12 µg/mL (≈ 0.164 µM)
MIC range (B. pertussis): 0.06 to 0.12 µg/mL
MIC50 (N meningitidis): 0.12 µg/mL (≈ 0.164 µM)
MIC90 (N meningitidis): 0.25 µg/mL (≈ 0.341 µM)
MIC50 (S. aureus (MS)): 0.25 µg/mL (≈ 0.341 µM)
MIC90 (S. aureus (MS)): > 64 µg/mL
MIC50 (H. influenzae [6]): 4 µg/mL (≈ 5.45 µM)
MIC90 (H. influenzae [6]): 8 µg/mL (≈ 10.9 µM)
MIC range (A. haemolyticum): ≤0.015-0.03 ^* mg/L

CC[C@H]1OC(=O)[C@H](C)[C@@H](O[C@H]2C[C@@](C)(OC)[C@@H](O)[C@H](C)O2)[C@H](C)[C@@H](O[C@@H]2O[C@H](C)C[C@H](N(C)C)[C@H]2O)[C@](C)(O)C[C@@H](C)CN(C)[C@H](C)[C@@H](O)[C@]1(C)O [azithromycin]
% of sensitive strains (S. pyogenes; after pretreatment): 100.0%
% of sensitive strains (S. pyogenes; without pretreatment): 100,0%
patients receiving prophylaxis who were colonized (P. jirovecii): 17.2%
MIC90 [7]: 0.5 ig/ml
MIC (N.gonorrhoeae; strain 76mu6): 0.25 µg/mL (≈ 0.334 µM)
MIC (N.gonorrhoeae; strain 76mu10): 0.25 µg/mL (≈ 0.334 µM)
%Sus (PRSP; [23]): 23.0%
MIC90 (PRSP; Streptococcus pneumoniae, PRSP): > 32 µg/mL
intermediate (I) (S. pneumoniae [8]; 137 isolates): 1.5%
resistant (R) (S. pneumoniae [8]; 137 isolates): 8%
susceptible (S) (S. pneumoniae [8]; 137 isolates): 90.5%
MIC90 (S. pneumoniae [8]; Streptococcus pneumoniae): 4 µg/mL (≈ 5.34 µM)
MIC90 [9]: 0.25 ig/ml
% of sensitive strains ([10]; after pretreatment, Abs. 0): 0.0%
% of sensitive strains ([10]; without pretreatment, Abs. 1): 0,0%
% of sensitive strains (Staph. coaq (−); after pretreatment, Abs. 2): 50.0%
% of sensitive strains (Staph. coaq (−); without pretreatment, Abs. 4): 75.0%
% of sensitive strains (S. -pneumoniae; after antibiotic pretreatment, Abs. 3): 100.0%
% of sensitive strains (S. -pneumoniae; without antibiotic pretreatment, Abs. 13): 100,0%
% of sensitive strains (S. aureus [11]): 75.0%
sensitivity, total strains ([12]; higher severity group (Fine scores >70)): 60.0%
sensitivity, total strains ([12]; lower severity group (Fine scores <70)): 73.6%
% of sensitive strains (Enterococcus sp; after pretreatment, Abs. 0): 0.0%
% of sensitive strains (Enterococcus sp; without pretreatment, Abs. 1): 0,0%
% of sensitive strains (Kl. pneumoniae; after pretreatment, Abs. 5): 0.0%
% of sensitive strains (Kl. pneumoniae; without pretreatment, Abs. 4): 0,0%
% of sensitive strains (H. influenzae [13]; after pretreatment, Abs. 10): 100.0%
% of sensitive strains (H. influenzae [13]; without pretreatment, Abs. 26): 100.0%
% of sensitive strains (P. aeruginosa; after pretreatment): 0.0%
% of sensitive strains (P. aeruginosa; without pretreatment): 0,0%
%Sus (ERSP; [23]): 0.3%
MIC90 (ERSP; Streptococcus pneumoniae): > 32 µg/mL
% of sensitive strains (Other Enterobacteriacae; after pretreatment, Abs. 5): 0.0%
% of sensitive strains (Other Enterobacteriacae; without pretreatment, Abs. 2): 0,0%
% of sensitive strains (E. coli; after pretreatment, Abs. 1): 0.0%
% of sensitive strains (E. coli; without pretreatment, Abs. 5): 0,0%
%Sus (S. pneumoniae [14]; [23]): 71.4%
MIC90 (S. pneumoniae [14]; Streptococcus pneumoniae): > 32 µg/mL
% of sensitive strains (Other Haemophilus sp.): 100.0%
% of sensitive strains [15]: 66.7%
MIC90 (H.influenzae; Haemophilus influenzae): 2 µg/mL (≈ 2.67 µM)
%Sus (H.influenzae; NCCLS): 99.1%

CCCCCCCCCC(=O)N[C@@H](Cc1c[nH]c2ccccc12)C(=O)N[C@H](CC(N)=O)C(=O)N[C@@H](CC(=O)O)C(=O)N[C@@H]1C(=O)NCC(=O)N[C@@H](CCCN)C(=O)N[C@@H](CC(=O)O)C(=O)N[C@H](C)C(=O)N[C@@H](CC(=O)O)C(=O)NCC(=O)N[C@H](CO)C(=O)N[C@@H]([C@H](C)CC(=O)O)C(=O)N[C@@H](CC(=O)c2ccccc2N)C(=O)O[C@@H]1C [daptomycin]
time to 99.9% kill, as early as (CA-MRSA; against all strains (CA-MRSA and MDR-MRSA)): 4 h
Δ Log10 CFU/ml (CA-MRSA; time kill, two strains): −3.88 Log10 CFU/ml
sensitivity (MRSA): All isolates were sensitive
% S (Enterococcus spp.): 100.0%
MIC range (Enterococcus spp.): 0.5 to 4 µg/mL
% S (S. aureus [16]; OXA-R): 99.0%
MIC range (S. aureus [16]; OXA-R): 0.12 to 2 µg/mL
% S (S. aureus [16]; OXA-S): 99.9%
MIC range (S. aureus [16]; OXA-S): ≤0.06 to 2 µg/mL
MIC range [17]: ≤0.06 to 2 µg/mL
MIC90, range between species [18]: 0.06 − 1 mg/L
Susceptible isolates ([18]; 915 isolates, daptomycin breakpoint ≤ 1 mg/L): 99.9%
% S ([19]; OXA-R): 100.0%
MIC range ([19]; OXA-R): ≤0.06 to 1 µg/mL
% S ([19]; OXA-S): 100.0%
MIC range ([19]; OXA-S): 0.12 to 1 µg/mL
% S (E. faecium [20]; VAN-G (77)): 97.4%
MIC range (E. faecium [20]; VAN-G (77)): 1—8 mg/L
% S (E. faecium [20]; VAN-R): 100.0%
MIC range (E. faecium [20]; VAN-R): 1—4 mg/L
% S [21]: 100.0%
MIC range [21]: ≤0.06 to 0.5 µg/mL
Δ Log10 CFU/ml (MDR-MRSA): −4.12 Log10 CFU/ml
% S (E. faecalis [22]): 100.0%
MIC range (E. faecalis [22]): ≤0.06 to 4 µg/mL
